Common to all, as to assay type: cell-based, rat
The subject of test [1] is PC12 cells. Briefly: Neuronal outgrowth of PC12 cells, factors in growth medium for 48 hours (Example 12, FIG. 1). The following applies: 48 hours in growth medium with factor, 1,3 cGP 1 μM, NGF 50 ng/ml, α glycerophosphate as control. On the procedure:
(§1) The immortal PC12 cell line is one of the most investigated systems in neuronal differentiation. In the presence of nerve growth factor these cells differentiate to neuronal cells. PC12 cells originated from rat pheochromocytoma were grown as monolayers in Eagle's medium (EM) supplemented with 10% fetal calf serum, 50 μg/ml gentamicin and 5 mM glutamine, in a humidified incubator buffered with 5% CO2, at 37° C. The culture medium is changed every four days and the cells are passaged every eight days and performed confluent monolayers (1.5×10^6 in a 10 cm plate or 10^5 cells per well in 24 wells plate). PC12 cells are originally round cells which, following several days in the presence of nerve growth factor (NGF) process nerves. Upon withdrawal of the NGF, the nerves retract and a process of apoptosis is initiated in the cells.
PC12 cells were grown in culture as explained above, the cells were divided into three groups and different factors were added to the growth medium of each group for 48 hours as follows: • Group A—α glycerophosphate. • Group B—nerve growth factor (NGF) at a concentration of 50 ng/ml. • Group C —1,3 cGP at a concentration of 1 μM.
The rate of neuronal growth in each of the above cultures was monitored and documented by microscopic photographs.

The test system of test [2] is PC12 cells. Briefly: Neural outgrowth of PC12 cells after three-hour pulse and wash, photographed on day 7 (Example 14, FIG. 2). The following applies: for promotion of neuronal outgrowth (summary statement): PC12 adrenal tumorigenic cells in culture, after a short incubation period; for neural outgrowth (microscopic photographs): PC12 cells pulsed for three hours, washed, grown in growth medium without factor, day 7 after treatment. The protocol: as §1
Cells were grown as described above and divided into groups which were each grown with one of the following:
The above factors were added to the cells for a period of three hours after which they were washed away from the cells. […] The neural outgrowth of the cells was monitored and microscopic photographs were taken on day seven after treatment with the above factors.

Test [3] deals with PC12 cells. Briefly: Neural outgrowth of PC12 cells after consecutive seven-day incubation (Example 15, FIG. 3). Conditions: PC12 cells incubated for consecutive 7 days; CGs at 0.5 μM. On the procedure:
as §1
The cells were incubated with the various factors for a consecutive period of seven days. Neural outgrowth was monitored and microscopic photographs were taken following the seven day incubation with the above factors.

Test [4] deals with PC12 cells. Briefly: Nerve rescue of NGF-differentiated PC12 cells after NGF withdrawal, 14-day culture (Example 19, FIG. 4). The protocol:
as §1
To study nerve rescue by 1,3 cPP, PC12 cells were incubated in tissue culture medium for a period of 14 days. Within this period, the cells were either grown in the presence of nerve growth factor (NGF) for different periods of times or were grown in the presence of 1,3, cPP for various periods of time. Neuronal differentiation and spread was examined in the various cells.

Entries after “also recorded” stand apart in the source; their conditions may differ.

Turning to `O=P1(O)OCC(O)CO1` (centres unmarked) [1,3 cGP, 1,3 cyclic glycerophosphate], the “neural outgrowth (microscopic photographs)” value (shortened to “neural outgrowth”) is “neural outgrowth was clearly seen” with PC12 cells [1], “Neuronal outgrowth is clearly seen” in the test with PC12 cells [1] (listed as 1,3 GP), “Neural outgrowth is seen” in the test with PC12 cells [2] and “neural outgrowth is observed to different extents” with PC12 cells [3]. For the same molecule, in the test on PC12 cells [2], the “promotion of neuronal outgrowth (summary statement)” value is given as “capable of promoting neuronal outgrowth”.
As to “phenyl 1,3 cyclic glycerophosphate [phenyl-1,3 cGP]”, the figures for the “neural outgrowth” value in the test with PC12 cells [2] and with PC12 cells [3] were “Neural outgrowth is seen” and “neural outgrowth is observed to different extents”, respectively.
For `O=P1(O)OCCCO1` [1,3 cPP, 1,3 cyclic propanediol phosphate], the “neural outgrowth” value with PC12 cells [2] is reported as “Neural outgrowth is seen”; in the test with PC12 cells [3], “neural outgrowth is observed to different extents”. In the test with PC12 cells [4] (PC12 cells 7 days with NGF 50 ng/ml, then 7 days with 2 μM, 4 μM or 6 μM 1,3 cPP), the “rescue of the neuronal network from retraction” value is listed as “partial to full rescue of the neuronal network”.
With “phenyl 1,3 cyclic propanediol phosphate [phenyl-1,3 cPP]”, the entries for the “neural outgrowth” value with PC12 cells [2] and with PC12 cells [3] were “Neural outgrowth is seen” and “neural outgrowth is observed to different extents”, respectively.
With `O=P(O)(O)OC(CO)CO` [βGP, β-Glycerophosphate, reference compound], in the test on PC12 cells [3], the “neural outgrowth” value was “No neural outgrowth was observed”.
Turning to `O=P1(O)OCC(CO)O1` (centres unmarked) [1,2 cGP, 1,2 cyclic glycerophosphate], in the test with PC12 cells [2], the “promotion of neuronal outgrowth (summary statement)” value is given as “capable of promoting neuronal outgrowth” and the “neural outgrowth” value is “Neural outgrowth is seen”. The “neural outgrowth” value with PC12 cells [3] is “neural outgrowth is observed to different extents”.
As to `O=P(O)(O)OCC(O)CO` (stereo in doubt) [αGP, L-α-glycerophosphate, reference compound], the “neural outgrowth” value is recorded as “did not promote neural outgrowth” with PC12 cells [1] and “No neural outgrowth was observed” in the test on PC12 cells [3].

B1: NGF: nerve growth factor, a growth factor that differentiates PC12 cells to neuronal cells (protein, UniProt P01139 122-241, looked up)
Beta-nerve growth factor: SSTHPVFHMGEFSVCDSVSVWVGDKTTATDIKGKEVTVLAEVNINNSVFRQYFFETKCRASNPVESGCRGIDSKHWNSYCTTTHTFVKALTTDEKQAAWRFIRIDTACVCVLSRKATRRG
In the case of B1, the figures for the “neural outgrowth” value in the test with PC12 cells [1], in the test with PC12 cells [2] and with PC12 cells [3] were “neural outgrowth was clearly seen; also recorded: Neuronal outgrowth is clearly seen”, “did not promote any nerve generation” and “neural outgrowth was seen; also recorded: extensive neural outgrowth is seen”, respectively. In addition, the “nerve retraction after NGF withdrawal” value with PC12 cells [4] (PC12 cells 7 days with NGF 50 ng/ml, then 7 days without NGF) is listed as “complete nerve retraction was observed”. In the test on PC12 cells [4] (PC12 cells grown with NGF 50 ng/ml for full 14 days), the neuronal differentiation result is on record as “full neuronal differentiation”.

Source of the values: patent US6914056B1, “Pharmaceutical compositions comprising cyclic glycerophosphates and analogs thereof for promoting neural cell differentiation” (Yeda Research and Development Co., Ltd., priority 1999, dated 2005).
